Data taken from patent US20240300957A1, “TETRAZOLE-SUBSTITUTED ETHYL-SULFONE / SULFOXIMINE-PYRIDINE DERIVATIVES” (Boehringer Ingelheim Vetmedica GmbH, priority 2023, published 2024).

Experiments:
[1] = test system: 3rd-instar nymphs of Laodelphax striatellus; experiment: Insecticidal test on Laodelphax striatellus (rice seedling dip); format: in vivo; settings: 192 h, 8 days after inoculation, 25° C., read-out: activity level (corrected mortality rate)
[2] = test system: Plutella xylostella; experiment: Insecticidal test on Plutella xylostella (Chinese cabbage seedling dip); format: in vivo; settings: 144 h, 6 days after dip treatment, 25° C., read-out: activity level (corrected mortality rate)
Procedure: Example 14: Insecticidal Test on Plutella xylostella
The compounds of formula (I), (Ia) and (Ib) of the present invention or salts thereof are separately dispersed in water and diluted to 50 ppm. Ten adults of Plutella xylostella are released onto Chinese cabbage seedlings and allowed to lay eggs thereon. 2 days after the release of the adults, the seedling is dipped in the dispersion for about 30 seconds. After air dried, the seedling is kept in a room at 25° C. 6 days after the dip treatment, the numbers of the dead and alive insects are counted. The corrected mortality rate is calculated according to the following formula and the insecticidal activity was evaluated according to the following criteria.
[formula] • A: the corrected mortality rate is 100% • B: the corrected mortality rate is 90 to 99% • C: the corrected mortality rate is 80 to 89% • D: the corrected mortality rate is 50 to 79%

[3] = test system: adult C. felis fleas; experiment: Ingestion activity against adult Ctenocephalides felis (artificial membrane feeding, bovine blood); format: in vivo; settings: bovine blood via artificial membrane, motility 48 h post treatment, read-out: EC50 (ingestion activity, % motility reduction)
Procedure: Example 6: Screening Method to Test Ingestion Activity of Compounds of Formula (I), (Ia) or (Ib) Against Adult Ctenocephalides felis Compounds of formula (I), (Ia) and (Ib) dissolved in 100% DMSO are added to bovine blood and offered via an artificial membrane feeding system to adult C. felis fleas. The motility of fleas is then visually inspected 48 h post treatment. Efficacy is expressed in % motility reduction compared to controls containing blood treated with DMSO only. A dose response series is implemented to determine EC50 values.

[4] = test system: adult R. sanguineus ticks; experiment: Contact activity against adult Rhipicephalus sanguineus (coated vial); format: in vivo; settings: mortality at 48 hours post-treatment, 24° C., 95% relative humidity, read-out: EC50 (contact activity, percentage mortality)
Procedure: Screening Method to Test Contact Activity of Compounds of Formula (I), (Ia) or (Ib) Against Adult Rhipicephalus Sanguineus Compounds of formula (I), (Ia) and (Tb) formulated in 100% DMSO are diluted in a solution containing acetone and Triton X-100 (0.02%). The resulting formulation is used to coat the inner walls of glass scintillation vials and the filter paper covering the cap of the vial. Once dried, ten adult R. sanguineus ticks are added to the vials. The vials are incubated at 24° C., 95% relative humidity, and 12 hours of light/12 hours of dark until evaluation. Ticks are visually evaluated for mortality at 48 hours post-treatment. Compound efficacy at a given dose is expressed as percentage mortality. A dose response series is implemented to determine EC50 values.

[5] = test system: adult Ctenocephalides felis fleas; experiment: Contact activity against adult Ctenocephalides felis (coated pipe cleaner in vial); format: in vivo; settings: adult C. felis, mortality at 72 hours post-treatment, 22° C., 80% relative humidity, read-out: EC50 (contact activity, percentage mortality)
Procedure: Example 4: Screening Method to Test Contact Activity of Compounds of Formula (I), (Ia) or (Ib) Against Adult Ctenocephalides felis
Compounds of formula (I), (Ia) and (Ib) dissolved in 100% DMSO are diluted in acetone to a desired concentration. The resulting formulation is used to coat the fibers of a 0.5-inch-long piece of pipe cleaner placed in a glass scintillation vial. The vial is capped with a rubber gasket and filter paper insert. After the acetone has evaporated, ten adult Ctenocephalides felis fleas are added to each vial. The vials are then incubated at 22° C., 80% relative humidity, and 12 hours of light/12 hours of dark until a visual evaluation for mortality is performed at 72 hours post-treatment. Compound efficacy at a given dose is expressed as percentage mortality and adjusted to remove background mortality observed in control vials containing DMSO only. A dose response series of treated vials is implemented to determine EC50 values.

[6] = test system: 2nd-instar larvae of Spodoptera litura; experiment: whole plant or invertebrate; settings: in Brassica oleracea, foliar, 192 h, read-out: activity level (corrected mortality rate)

EC50 [3] [µM]	Compound	mortality at 50 ppm [1] [%]	mortality at 50 ppm [2] [%]	EC50 [4] [µM]	EC50 [5] [µM]	mortality at 50 ppm [6] [%]
10 to 100	CCS(=O)(=O)c1cc(-n2nnnc2C2CC2)cnc1-c1nc2cc(C(F)(F)C(F)(F)F)nnc2n1C [Compound 2, 6-[5-(5-cyclopropyltetrazol-1-yl)-3-ethylsulfonyl-2-pyridyl]-7-methyl-3-(1,1,2,2,2-pentafluoroethyl)imidazo[4,5-c]pyridazine]					
< 10	CCn1nnnc1-c1cnc(-c2nc3cc(C(F)(F)C(F)(F)F)nnc3n2C)c(S(=O)(=O)CC)c1 [Compound 6]					
10 to 100	CCS(=O)(=O)c1cc(-c2nnn(C)n2)cnc1-c1nc2cc(C(F)(F)C(F)(F)F)nnc2n1C [Compound 7, 6-[3-ethylsulfonyl-5-(2-methyltetrazol-5-yl)-2-pyridyl]-7-methyl-3-(1,1,2,2,2-pentafluoroethyl)imidazo[4,5-c]pyridazine]			10 to 100	< 10	
10 to 100	CCS(=O)(=O)c1cc(-c2nnn(C)n2)cnc1-c1ncc(C(=O)NCC(F)(F)F)n1C [Compound 8]					
	CCS(=O)(=O)c1cc(-c2nnn(C(C)C)n2)cnc1-c1nc2cc(C(F)(F)C(F)(F)F)nnc2n1C [Compound 10]	100	100	< 10		
10 to 100	CCS(=O)(=O)c1cc(-n2nnnc2C)cnc1-c1nc2cc(C(F)(F)C(F)(F)F)nnc2n1C [Compound 12]					
< 10	CCS(=O)(=O)c1cc(-c2nnn(C)n2)cnc1-c1nc2cc(C(F)(F)C(F)(F)F)cnc2n1C [Compound 14]		100	10 to 100	10 to 100	100
< 10	CCS(=O)(=O)c1cc(-c2nnnn2C)cnc1-c1nc2cc(C(F)(F)C(F)(F)F)cnc2n1C [Compound 15]		100			
	CCS(=O)(=O)c1cc(-c2nnnn2-c2ccccc2)cnc1-c1nc2cc(C(F)(F)C(F)(F)F)nnc2n1C [Compound 16]		100			

Compound	EC50 [3] [µM]	mortality at 50 ppm [1] [%]	mortality at 50 ppm [2] [%]	EC50 [4] [µM]	EC50 [5] [µM]	mortality at 50 ppm [6] [%]
CCS(=O)(=O)c1cc(-c2nnnn2C2CC2)cnc1-c1nc2cc(C(F)(F)C(F)(F)F)nnc2n1C [Compound 1, 6-[5-(1-cyclopropyltetrazol-5-yl)-3-ethylsulfonyl-2-pyridyl]-7-methyl-3-(1,1,2,2,2-pentafluoroethyl)imidazo[4,5-c]pyridazine]	< 10	100	100	10 to 100		
CCS(=O)(=O)c1cc(-c2nnnn2C)cnc1-c1nc2cc(C(F)(F)C(F)(F)F)nnc2n1C [Compound 4]	< 10	100				
CCS(=O)(=O)c1cc(-c2nnn(C)n2)cnc1-c1nc2cc(S(=O)(=O)C(F)(F)F)nnc2n1C [Compound 9]	< 10	100	100			100
